Here are results for two compounds from patent US4513001A, “β-Adrenergic 1-[1-benzimidazolyl]-N-[2-(4-hydroxy-3-methoxy-phenyl)-2-hydroxy-ethyl]- 3-amino butane and salts and hydrates thereof” (priority 1982, dated 1985).

Data set [1] can be described thus: Acute toxicity in the mouse, intravenous. As to conditions: in vivo. From the text: These two compounds were the subject of an acute toxicity study in the mouse.
The two compounds had similar toxicity and the pharmacological study was able, indifferently, to be carried out with one or the other, the results being, in the two cases, expressed by weight of base per kg of body weight for the in vivo tests and in molar concentration for the in vitro tests.

The subject of data set [2] is heart rate. As to the kind of experiment: β-stimulant specificity: heart rate of the anesthetised dog, antagonism of compound A tachycardia by acebutolol. It is filed as in vivo. From the text:
The results below are the averages of the values obtained in 3 dogs.

Data set [3] has as its system uterine horn. As to the kind of experiment: Uterus relaxing activity in vivo (ocytocine-induced contractions). As to conditions: rat, i.v.; compound A 16.8 μg/kg vs salbutamol 24.9 μg/kg. As to the method:
The test was carried out also in the rat.
The aminal was anesthesied by ethyl carbamate.
The contractions caused in an exposed uterine horn immersed in a nutrient bath were recorded (bath: RINGER-LOCKE modified by GADDUM and VOGT). These contractions were induced by the intravenous injection of ocytocine, at the dose of 0.1 IU per kg.
After a control recording of the effects of the latter, the compound A or the Salbutamol were administered intravenously and the further ocytocine injection was carried out; its effect was compared with that of the control reaction.

Data set [4] concerns heart rate. As to the kind of experiment: Heart rate of the un-anesthetised dog, oral. It counts as in vivo, Beagle dog.
Where [5] appears, read: T0 + 1 min, perfusion compound A 4.2 μg/kg/min, T0: 157.
Setting [6] is: T1 + 4 h 1 min, second perfusion compound A after acebutolol.
Where [7] appears, read: T1 + 4 h 2 min, second perfusion compound A after acebutolol.
[8] abbreviates: T1 + 4 h 4 min, second perfusion compound A after acebutolol.
The mark [9] stands for this setting: T1 + 4 h 6 min, second perfusion compound A after acebutolol.

Molecules are shown by their SMILES. Read-outs that look alike come from different tables or passages of the source.

Take `COc1cc(C(O)CNC(C)CCn2cnc3ccccc32)ccc1O` (stereo not drawn) [Compound A, 1-[1-benzimidazolyl]-N-[2-(4-hydroxy-3-methoxy-phenyl)2-hydroxy-ethyl]3-amino butane basic sulphate, dihydrate]: the LD50 in data set [1] (as base, confidence limits printed, read-out: LD50 expressed as base) turned out to be 96 mg/kg; in data set [1] (by weight of product, confidence limits p=0.05 printed, read-out: LD50), 114 mg/kg. The Heart rate in data set [2] (setting [5]) was 180 beats/min; in data set [2] (T0 + 2 min, perfusion compound A, T0: 157), 197 beats/min; in data set [2] (T0 + 4 min, perfusion compound A, T0: 157) it was 202 beats/min; in data set [2] (T0 + 6 min = T1, perfusion compound A, T0: 157) it was 205 beats/min; in data set [2] (setting [6]), 146 beats/min; in data set [2] (setting [7]), 155 beats/min. The Heart rate in data set [2] (setting [8]) and in data set [2] (setting [9]) was 160 beats/min throughout. Also, the Heart rate variation entry is given as “+23” in data set [2] (setting [5]); “+40” in data set [2] (T0 + 2 min, perfusion compound A); “+45” in data set [2] (T0 + 4 min, perfusion compound A); “+48” in data set [2] (T0 + 6 min = T1, perfusion compound A); -11 in data set [2] (setting [6]); -2 in data set [2] (setting [7]). Also, the Heart rate variation result in data set [2] (setting [8]) and in data set [2] (setting [9]) was “+3” in each case. Also, the “Inhibiting activity on ocytocine-induced uterine contractions (comparison with Salbutamol)” value in data set [3] is given as “inhibiting activity comparable with that of salbutamol”.
As for `CC(C)(C)NCC(O)c1ccc(O)c(CO)c1` (stereo not drawn) [Salbutamol, reference compound], the “Heart rate, average” value in data set [4] (25 μg base/kg, 15 min, time 0: 92, 12 dogs) was found to be 142; in data set [4] (25 μg base/kg, 30 min, time 0: 92), 165; in data set [4] (25 μg base/kg, 1 h, time 0: 92), 170; in data set [4] (25 μg base/kg, 2 h, time 0: 92), 156; in data set [4] (25 μg base/kg, 3 h, time 0: 92), 137; in data set [4] (25 μg base/kg, 4 h, time 0: 92) it was 130. The “Heart rate, average” value in data set [4] (25 μg base/kg, 5 h, time 0: 92) is 120; in data set [4] (83 μg base/kg, 15 min, time 0: 90, 12 dogs), 163; in data set [4] (83 μg base/kg, 30 min, time 0: 90), 194; in data set [4] (83 μg base/kg, 1 h, time 0: 90), 197; in data set [4] (83 μg base/kg, 2 h, time 0: 90), 195; in data set [4] (83 μg base/kg, 3 h, time 0: 90), 172. The “Heart rate, average” value in data set [4] (83 μg base/kg, 4 h, time 0: 90) came to 150; in data set [4] (83 μg base/kg, 5 h, time 0: 90), 148; in data set [4] (83 μg base/kg, 6 h, time 0: 90) it was 141; in data set [4] (83 μg base/kg, 7 h, time 0: 90), 138. Besides, the “Tachycardiac activity (comparison with Salbutamol)” value in data set [4] (un-anesthetised dog, in words) was “more active than compound B: the effect of the low dose of Salbutamol is equal to that of the high dose of compound B”.
